The NIST ThermoML archive (doi:10.1021/acs.jced.7b00578)
Several values for one entry are separate records, joined by “and”; a condition that tells them apart may be missing. Identical values can stand only once.

Columns and labels:
[1] = for vapor or sublimation pressure: Closed cell (Static) method; for Normal melting temperature: DTA
[2] = molar heat capacity at constant pressure; conditions: 101.33 kPa, Extra sensitive DSC
[3] = Molar enthalpy of transition or fusion; conditions: Crystal; DSC

CC1COC(=O)O1 (stereo not given) [4-methyl-1,3-dioxolan-2-one]
Liquid
Conditions	molar heat capacity at constant pressure [J/K/mol]	vapor or sublimation pressure
[1], 278.19 K	–	0.00132 kPa
[1], 278.37 K	–	0.00133 kPa
[1], 278.39 K	–	0.00133 kPa
[1], 283.31 K	–	0.00214 kPa
[1], 283.32 K	–	0.00214 kPa
[1], 288.19 K	–	0.00332 kPa
[1], 288.2 K	–	0.00333 kPa
[1], 288.22 K	–	0.00332 kPa
[1], 293.12 K	–	0.00511 kPa
[1], 293.14 K	–	0.00512 kPa
[1], 293.15 K	–	0.00514 kPa and 0.00511 kPa
[1], 298.1 K	–	0.00778 kPa
[1], 298.11 K	–	0.00778 kPa
[1], 298.12 K	–	0.00777 kPa
[1], 303.01 K	–	0.01158 kPa and 0.01155 kPa
[1], 303.03 K	–	0.01156 kPa
[1], 307.94 K	–	0.01701 kPa and 0.01698 kPa
[1], 307.95 K	–	0.01694 kPa and 0.01696 kPa
[1], 312.97 K	–	0.0247 kPa and 0.02472 kPa
[1], 312.98 K	–	0.02474 kPa
[1], 312.99 K	–	0.02479 kPa
[1], 317.91 K	–	0.03529 kPa
[1], 317.92 K	–	0.0353 kPa and 0.03533 kPa and 0.03536 kPa
[1], 322.9 K	–	0.04993 kPa
[1], 322.92 K	–	0.04996 kPa and 0.05002 kPa and 0.05 kPa
[1], 327.8 K	–	0.06936 kPa
[1], 327.81 K	–	0.06935 kPa and 0.06932 kPa and 0.06938 kPa
[1], 332.89 K	–	0.09634 kPa and 0.09635 kPa
[1], 332.91 K	–	0.09643 kPa
[1], 332.92 K	–	0.09645 kPa
[1], 337.83 K	–	0.1311 kPa
[1], 337.84 K	–	0.1311 kPa and 0.1312 kPa
[1], 337.85 K	–	0.1312 kPa
[1], 342.82 K	–	0.177 kPa
[1], 342.83 K	–	0.1772 kPa
[1], 342.84 K	–	0.1773 kPa and 0.1772 kPa
[1], 347.69 K	–	0.2353 kPa
[1], 347.7 K	–	0.2354 kPa
[1], 352.55 K	–	0.3096 kPa
[1], 352.58 K	–	0.3102 kPa
[1], 352.59 K	–	0.3103 kPa
[1], 357.59 K	–	0.4078 kPa
[1], 357.6 K	–	0.4079 kPa
[1], 362.51 K	–	0.529 kPa
[1], 362.53 K	–	0.5293 kPa and 0.5294 kPa and 0.5295 kPa
[2], 262.22 K	162.94	–
[2], 265 K	163.34	–
[2], 270 K	164.16	–
[2], 275 K	164.98	–
[2], 280 K	165.79	–
[2], 285 K	166.61	–
[2], 290 K	167.53	–
[2], 295 K	168.45	–
[2], 300 K	169.37	–
[2], 305 K	170.29	–
[2], 310 K	171.2	–
[2], 315 K	172.23	–
[2], 320 K	173.14	–
[2], 325 K	174.17	–
[2], 330 K	175.19	–
[2], 335 K	176.11	–
[2], 340 K	177.13	–
[2], 345 K	178.15	–
[2], 350 K	179.17	–
[2], 355 K	180.09	–
[2], 357.99 K	180.7	–

O=C1OCCO1 [ethylene carbonate]
Conditions	molar heat capacity at constant pressure [J/K/mol]	vapor or sublimation pressure
[1], 272.67 K, Crystal	–	0.00025 kPa
[1], 272.74 K, Crystal	–	0.00026 kPa
[1], 272.8 K, Crystal	–	0.00025 kPa
[1], 272.88 K, Crystal	–	0.00025 kPa
[1], 278.16 K, Crystal	–	0.00051 kPa and 0.00049 kPa
[1], 278.17 K, Crystal	–	0.00049 kPa
[1], 283.05 K, Crystal	–	0.00087 kPa and 0.00088 kPa and 0.00086 kPa
[1], 288.1 K, Crystal	–	0.00154 kPa and 0.00152 kPa and 0.00151 kPa
[1], 292.98 K, Metastable liquid	–	0.0034 kPa and 0.00338 kPa
[1], 293 K, Metastable liquid	–	0.00341 kPa
[1], 293.01 K, Crystal	–	0.00258 kPa and 0.00256 kPa
[1], 293.02 K, Crystal	–	0.00254 kPa and 0.00256 kPa
[1], 297.98 K, Crystal	–	0.00431 kPa and 0.0043 kPa
[1], 297.99 K, Crystal	–	0.00431 kPa
[1], 297.99 K, Metastable liquid	–	0.00518 kPa and 0.0052 kPa and 0.00521 kPa
[1], 298 K, Metastable liquid	–	0.0052 kPa
[1], 302.82 K, Crystal	–	0.00702 kPa and 0.00697 kPa
[1], 302.83 K, Crystal	–	0.00701 kPa
[1], 302.92 K, Metastable liquid	–	0.0078 kPa and 0.00783 kPa
[1], 307.84 K, Crystal	–	0.01131 kPa
[1], 307.84 K, Metastable liquid	–	0.01153 kPa and 0.01158 kPa and 0.01159 kPa
[1], 307.85 K, Crystal	–	0.01133 kPa and 0.0113 kPa
[1], 307.85 K, Metastable liquid	–	0.01159 kPa
[1], 312.82 K, Liquid	–	0.01692 kPa and 0.01693 kPa
[1], 312.83 K, Liquid	–	0.01694 kPa
[1], 317.76 K, Liquid	–	0.02435 kPa
[1], 317.77 K, Liquid	–	0.02435 kPa and 0.02433 kPa
[1], 322.65 K, Liquid	–	0.03439 kPa and 0.03437 kPa
[1], 322.66 K, Liquid	–	0.03443 kPa
[1], 327.75 K, Liquid	–	0.04874 kPa and 0.04875 kPa
[1], 327.76 K, Liquid	–	0.04872 kPa
[1], 327.77 K, Liquid	–	0.04878 kPa
[1], 332.8 K, Liquid	–	0.06796 kPa and 0.06798 kPa and 0.06797 kPa
[1], 337.66 K, Liquid	–	0.09261 kPa
[1], 337.67 K, Liquid	–	0.09259 kPa and 0.09267 kPa
[1], 337.68 K, Liquid	–	0.09275 kPa
[1], 342.68 K, Liquid	–	0.126 kPa
[1], 342.69 K, Liquid	–	0.1261 kPa and 0.1262 kPa
[1], 342.7 K, Liquid	–	0.1262 kPa
[1], 347.63 K, Liquid	–	0.1694 kPa
[1], 347.65 K, Liquid	–	0.1695 kPa
[1], 347.66 K, Liquid	–	0.1696 kPa
[1], 352.45 K, Liquid	–	0.2235 kPa
[1], 352.46 K, Liquid	–	0.2236 kPa
[1], 352.47 K, Liquid	–	0.2238 kPa
[1], 352.49 K, Liquid	–	0.2241 kPa
[1], 357.49 K, Liquid	–	0.296 kPa
[1], 357.5 K, Liquid	–	0.2961 kPa and 0.2962 kPa and 0.2963 kPa
[1], 362.62 K, Liquid	–	0.3906 kPa
[1], 362.63 K, Liquid	–	0.3906 kPa and 0.3907 kPa
[2], 262.19 K, Crystal	101.89	–
[2], 264 K, Crystal	102.85	–
[2], 266 K, Crystal	104	–
[2], 268 K, Crystal	105.06	–
[2], 270 K, Crystal	106.2	–
[2], 272 K, Crystal	107.35	–
[2], 274 K, Crystal	108.49	–
[2], 276 K, Crystal	109.72	–
[2], 278 K, Crystal	110.87	–
[2], 280 K, Crystal	112.1	–
[2], 282 K, Crystal	113.33	–
[2], 284 K, Crystal	114.57	–
[2], 286 K, Crystal	115.8	–
[2], 288 K, Crystal	117.03	–
[2], 290 K, Crystal	118.26	–
[2], 292 K, Crystal	119.59	–
[2], 294 K, Crystal	120.91	–
[2], 295.68 K, Crystal	121.96	–
[2], 316.43 K, Liquid	139.49	–
[2], 317 K, Liquid	139.58	–
[2], 318 K, Liquid	139.75	–
[2], 319 K, Liquid	139.84	–
[2], 320 K, Liquid	140.02	–
[2], 321 K, Liquid	140.1	–
[2], 322 K, Liquid	140.28	–
[2], 323 K, Liquid	140.37	–
[2], 323.6 K, Liquid	140.46	–

Conditions	Normal melting temperature [°C]
[1], Crystal	35.98

Conditions	Molar enthalpy of transition or fusion [kcal/mol]
[3]	3.23

CC1CCC(=O)O1 (stereo not given) [γ-valerolactone]
Liquid
Conditions	molar heat capacity at constant pressure [J/K/mol]	vapor or sublimation pressure
[1], 238.07 K	–	0.00014 kPa
[1], 238.08 K	–	0.00015 kPa
[1], 238.09 K	–	0.00015 kPa
[1], 243.06 K	–	0.00026 kPa
[1], 243.07 K	–	0.00026 kPa
[1], 248.13 K	–	0.00048 kPa
[1], 253.14 K	–	0.00082 kPa
[1], 258.15 K	–	0.00138 kPa
[1], 263.14 K	–	0.00228 kPa
[1], 268.14 K	–	0.00369 kPa
[1], 273.14 K	–	0.00586 kPa
[1], 273.15 K	–	0.00586 kPa
[1], 273.63 K	–	0.00612 kPa
[1], 273.64 K	–	0.00612 kPa
[1], 278.14 K	–	0.00912 kPa
[1], 283.14 K	–	0.01396 kPa and 0.01395 kPa
[1], 288.14 K	–	0.02098 kPa and 0.02097 kPa
[1], 288.15 K	–	0.021 kPa
[1], 293.13 K	–	0.03106 kPa
[1], 293.14 K	–	0.03111 kPa and 0.03109 kPa
[1], 298.14 K	–	0.04532 kPa and 0.04531 kPa
[1], 303.13 K	–	0.06501 kPa and 0.06502 kPa
[1], 308.14 K	–	0.09212 kPa and 0.09211 kPa
[2], 265.37 K	167.7	–
[2], 270 K	168.6	–
[2], 275 K	169.6	–
[2], 280 K	170.7	–
[2], 285 K	171.81	–
[2], 290 K	172.91	–
[2], 295 K	174.11	–
[2], 300 K	175.31	–
[2], 305 K	176.61	–
[2], 310 K	177.81	–
[2], 315 K	179.11	–
[2], 320 K	180.42	–
[2], 325 K	181.72	–
[2], 330 K	183.02	–
[2], 335 K	184.22	–
[2], 340 K	185.52	–
[2], 345 K	186.72	–
[2], 350 K	187.93	–
[2], 355 K	189.13	–
[2], 358.5 K	189.93	–

Conditions	Normal melting temperature [°C]
[1], Crystal	-34.81

Conditions	Molar enthalpy of transition or fusion [kcal/mol]
[3]	1.7
